The values below come from patent US5684151A, “1-arylsulphonyl, arylcarbonyl and 1-arylphosphonyl-3-phenyl-1,4,5,6-tetrahydropyridazines” (priority 1995, dated 1997).

Read-outs that look alike come from different tables or passages of the source.

The subject of experiment [1] is mouse (MC3T3-E1) and human (TE-85) osteoblast-line cells. Format: cell-based. The text has this: Compounds of the present invention have utility to treat osteoporosis through enhancement of bone calcification rather than traditional approaches which generally involve inhibition of bone degeneration or resorption. The compounds of the present invention have been evaluated as stimulators of proliferation of osteoblast cell and chick calivaria bone organ culture which is predictive of enhancement of bone mass and bone formation in vivo.
The action of select compounds to stimulate osteoblast growth was measured in culture by estimating the rate of DNA synthesis by the rate of ^3 H-thymidine incorporation into DNA. Only cells undergoing mitosis synthesized new DNA and thus only these cells incorporated the radiolabelled DNA-specific thymidine. The stimulation of the proliferation and differentiation of bone-forming cells, osteoblasts, was a prerequisite for an increase in bone formation and bone mass. The ability of agents to increase osteoblast proliferation and differentiation can be predicted by their action on cultured osteoblast-line cells in vitro. In this test, mouse (MC3T3-E1) and human (TE-85) osteoblast-line cells (American Type Tissue Culture Collection, #CRL 1543, Rockville, Md. cloned by Sudo et al., Koriyama, Japan) were cultured in vitro and the effect of various agents were tested on osteoblast cell proliferation. Cells were harvested from large culture flasks where they were allowed to grow to near confluency using trypsin. The cells were plated into 96 well culture plates, 1600 cells in 100 μL per well in Dulbencos Modified Eagle's Medium (DMEM) with 25 mM HEPES buffer, L-glutamine (584 mg/L); D-glucose (4.5 g/L) supplemented with fetal bovine sera (10%); penicillin (100 units/mL) and streptomycin (100 mcg/mL); sodium pyruvate (10 μM final concentration). The cells were allowed to plate overnight in DMEM containing 10% fetal bovine sera at 37° C. in an atmosphere of 5% CO2/95% air. Following their placement into 96 well culture plates all the osteoblast-line cells, either the MC3T3-E1 or the TE-85 cell lines, were allowed an additional 24 hours preincubation period in media containing only 0.1% fetal bovine sera.
Twenty hours later, a 20 μL aliquot of media containing 0.4 μCi of ^3 H-thymidine was added to each culture well. The cells were then incubated an additional 4 hours. The incubation was terminated by aspirating the media and washing with HBSS (Hank's Balanced Salt Solution). The cells were then treated with 100 μL of 0.5% trypsin and 5.3 mM EDTA for 30 minutes at room temperature. The cells were then aspirated onto glass fiber filter and washed with water. The radioactivity on the filters was quantified by liquid scintillation spectroscopy. The rate of ^3 H-thymidine incorporation into DNA was then utilized as an index of cell proliferation. The results are shown in Table 13 expressed as % times control where the control is 100%. […]

In experiment [2] the target is T1, progestin receptor from rabbit uterus (Oryctolagus cuniculus, UniProt P06186).
T1 construct: Cytosolic progestin receptor were obtained by mixing rabbit uterine tissue with a Tris buffer; from tissue; host or cells: rabbit uterus cytosol
T1 sequence (P06186 whole entry): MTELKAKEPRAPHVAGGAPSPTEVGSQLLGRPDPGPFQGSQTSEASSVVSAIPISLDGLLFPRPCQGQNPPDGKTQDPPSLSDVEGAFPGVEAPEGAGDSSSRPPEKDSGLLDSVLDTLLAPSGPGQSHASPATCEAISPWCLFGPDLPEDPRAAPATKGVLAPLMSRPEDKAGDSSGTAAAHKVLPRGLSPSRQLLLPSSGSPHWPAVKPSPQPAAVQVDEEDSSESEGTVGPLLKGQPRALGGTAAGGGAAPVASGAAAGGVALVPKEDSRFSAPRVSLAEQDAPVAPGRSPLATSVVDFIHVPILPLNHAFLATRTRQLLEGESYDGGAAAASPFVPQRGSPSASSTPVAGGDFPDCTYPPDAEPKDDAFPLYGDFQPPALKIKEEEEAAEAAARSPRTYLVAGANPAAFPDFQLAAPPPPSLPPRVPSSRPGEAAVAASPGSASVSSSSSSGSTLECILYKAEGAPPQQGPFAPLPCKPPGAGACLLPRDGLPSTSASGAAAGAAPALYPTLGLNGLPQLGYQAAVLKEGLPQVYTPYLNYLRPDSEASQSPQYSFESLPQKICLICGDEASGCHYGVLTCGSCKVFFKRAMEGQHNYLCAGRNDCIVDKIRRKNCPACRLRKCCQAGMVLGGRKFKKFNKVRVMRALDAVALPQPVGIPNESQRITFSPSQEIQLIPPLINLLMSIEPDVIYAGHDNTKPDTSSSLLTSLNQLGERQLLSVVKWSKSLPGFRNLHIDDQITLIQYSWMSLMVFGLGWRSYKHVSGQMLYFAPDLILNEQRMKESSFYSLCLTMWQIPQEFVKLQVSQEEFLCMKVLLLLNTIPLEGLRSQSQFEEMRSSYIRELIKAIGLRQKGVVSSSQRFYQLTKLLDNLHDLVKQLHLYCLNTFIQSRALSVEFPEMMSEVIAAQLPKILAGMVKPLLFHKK
Description: Progestin receptor binding (3H-R5020 displacement). The note with it: rabbit uterine cytosol, 4° C., 18 h, read-out: IC50: Binding affinity for the progestin receptor from rabbit uterus. As for the experimental part: A progestin initiates a biological response by first binding to a progestin receptor. Affinity for progestin receptors was determined by measuring the ability of compounds to displace a progestin radioligand from those receptors in vitro. Cytosolic progestin receptor were obtained by mixing rabbit uterine tissue with a Tris buffer [0.1M Tris-Hcl, 1 mM Na2 EDTA, 1 mM dithiothreotol, 1 mM sodium molybdate, 1% glycerol, pH 7.4]. The tissue/buffer mixture was homogenized under ice-cold conditions. The homogenate was then centrifuged and the supernatant (cytosol preparation) was decanted and stored at -70° C. and thawed prior to use. The competitive binding assay was performed by mixing ^3 H-R5020, a progestin radioligand, with cytosol preparation and various concentrations of test compounds (prepared in DMSO with a final 5% DMSO concentration). This mixture was then incubated at 4° C. for about 18 hours. Non-specific binding was determined using an unlabelled ligand in excess. After the incubation period, the radioligand bound to receptor was separated from free radioligand using dextran-coated charcoal. The amount of bound radioligand was then determined by liquid scintillation counting. The data were expressed as the concentration of test compound that displaced 50% of the radioligand from the receptor (IC50)
Aspects of the application used in this procedure are described in the following: J. L. McGuire et al., Biochemistry 13, 319, 1974.

As for `Cc1ccc(S(=O)(=O)N2CCCC(c3ccccc3)=N2)cc1` [Compound 2], the “Osteoblast Cell Proliferation, 3H-thymidine incorporation vs control (100%)” value (“Osteoblast Cell Proliferation … (100%)” for short) in experiment [1] (10^-6) is recorded as 105%; in experiment [1] (10^-7), 119%; in experiment [1] (10^-8) it was 99%; in experiment [1] (10^-9), 91%; in experiment [1] (10^-10), 77%. In addition, in experiment [2], the IC50 – broadly, the concentration at which inhibition is half-maximal – was 3000 nM.
Take `COC(=O)c1ccccc1S(=O)(=O)N1CCCC(c2ccc(Cl)c(Cl)c2)=N1` [Compound 47]: the “Osteoblast Cell Proliferation … (100%)” value was found to be 109% in experiment [1] (10^-6); 112% in experiment [1] (10^-7); 113% in experiment [1] (10^-8); 115% in experiment [1] (10^-9); 123% in experiment [1] (10^-10). Besides, the IC50 in experiment [2] was determined as 20.1 nM.
As to `O=S(=O)(c1cc(Cl)ccc1Cl)N1CCCC(c2ccc(F)cc2)=N1` [Compound 11], the “Osteoblast Cell Proliferation … (100%)” value was determined as 106% in experiment [1] (10^-6); 135% in experiment [1] (10^-7); 156% in experiment [1] (10^-8); 131% in experiment [1] (10^-9); 154% in experiment [1] (10^-10). Further, the IC50 in experiment [2] turned out to be 20 nM.
On to `O=S(=O)(/C=C/c1ccccc1)N1CCCC(c2ccc(Cl)c(Cl)c2)=N1` [Compound 167], for which the “Osteoblast Cell Proliferation … (100%)” value is given as 126% in experiment [1] (10^-6); 109% in experiment [1] (10^-7); 136% in experiment [1] (10^-8); 144% in experiment [1] (10^-9); 165% in experiment [1] (10^-10). Moreover, the IC50 in experiment [2] is 5.93 nM.
Take `O=S(=O)(c1ccc(Cl)cc1)N1CCCC(c2ccc(Cl)cc2)=N1` [Compound 6]: the “Osteoblast Cell Proliferation … (100%)” value in experiment [1] (10^-6) was 81%; in experiment [1] (10^-7) it was 97%; in experiment [1] (10^-8) it was 106%; in experiment [1] (10^-9) it was 114%; in experiment [1] (10^-10), 121%. Also, in experiment [2], the IC50 was found to be 15 nM.
As for `Cc1ccc(S(=O)(=O)N2N=C(c3ccccc3)CC3CCCC32)cc1` (centres unmarked) [Compound 156, 4,4a,5,6,7,7a-Hexahydro-3-phenyl-1-(4-methylbenzenesulfonyl)-1H-cyclopenta[c]pyridazine], the “Osteoblast Cell Proliferation … (100%)” value was 127% in experiment [1] (10^-6); 124% in experiment [1] (10^-7); 126% in experiment [1] (10^-8); 136% in experiment [1] (10^-9); 183% in experiment [1] (10^-10). In addition, the IC50 in experiment [2] was 1000 nM.
For `O=C(c1ccc([N+](=O)[O-])cc1)N1CCCC(c2ccc(Cl)cc2)=N1` [Compound 202], the “Osteoblast Cell Proliferation … (100%)” value in experiment [1] (10^-6) was 98%; in experiment [1] (10^-7) it was 108%; in experiment [1] (10^-8) it was 110%; in experiment [1] (10^-9), 116%; in experiment [1] (10^-10), 128%. In experiment [2], the IC50 is 279 nM.
Turning to `CC(C)OP(=O)(c1ccccc1)N1CCCC(c2ccc(Cl)c(Cl)c2)=N1` (centres unmarked) [Compound 256], the “Osteoblast Cell Proliferation … (100%)” value in experiment [1] (10^-6) turned out to be 97%; in experiment [1] (10^-7), 100%; in experiment [1] (10^-8) it was 104%; in experiment [1] (10^-9), 128%; in experiment [1] (10^-10), 116%. Also, the IC50 in experiment [2] turned out to be 95.5 nM.
On to `CCOP(=O)(c1ccccc1)N1CCCC(c2ccccc2)=N1` (centres unmarked) [Compound 253], for which the “Osteoblast Cell Proliferation … (100%)” value is reported as 151% in experiment [1] (10^-6); 124% in experiment [1] (10^-7); 143% in experiment [1] (10^-8); 142% in experiment [1] (10^-9); 157% in experiment [1] (10^-10). Besides, in experiment [2], the IC50 is 688 nM.
For `O=S(=O)(c1ccc2ccccc2c1)N1CCCC(c2ccc(F)cc2)=N1` [Compound 25], the “Osteoblast Cell Proliferation … (100%)” value in experiment [1] (10^-6) came to 87%; in experiment [1] (10^-7) it was 106%; in experiment [1] (10^-8), 101%; in experiment [1] (10^-9) it was 99%; in experiment [1] (10^-10), 90%. Further, the IC50 in experiment [2] stood at 49 nM.
With `O=S(=O)(c1ccc(Br)cc1)N1CCCC(c2ccc(Cl)cc2)=N1` [Compound 13], the “Osteoblast Cell Proliferation … (100%)” value in experiment [1] (10^-6) is recorded as 88%; in experiment [1] (10^-7), 109%; in experiment [1] (10^-8), 114%; in experiment [1] (10^-9), 109%; in experiment [1] (10^-10), 152%. In addition, the IC50 in experiment [2] is 9 nM.
As for `O=S(=O)(c1ccccc1)N1CCCC(c2ccc(Br)cc2)=N1` [Compound 103], the IC50 in experiment [2] came to 149 nM.
On the same count and under the same terms, the value for `O=[N+]([O-])c1ccccc1S(=O)(=O)N1CCCC(c2ccc(Cl)cc2)=N1` [Compound 27] was 65 nM.
On the same count and under the same terms, under `O=S(=O)(c1ccc(I)cc1)N1N=C(c2ccc(Cl)cc2)CC2CC=CC21` (centres unmarked) [Compound 160, 3-(4-Chlorophenyl)-1-(4-iodobenzenesulfonyl)-4,4a,5,7a-tetrahydro-1H-cyclopenta[c]pyridiazine] stands 32 nM; under `O=S(=O)(c1ccc(I)cc1)N1CCC(Br)(Br)C(c2ccc(Cl)c(C(F)(F)F)c2)=N1` [Compound 162, 4,4-Dibromo-3-(4-chloro-3-trifluoromethylphenyl)-1-(4-iodobenzenesulfonyl)-1,4,5,6-tetrahydropyridazine], 3 nM; under `Cc1ccc(S(=O)(=O)N2CCCC(c3ccc(Br)cc3)=N2)cc1` [Compound 101], 195 nM.
On to `O=S(=O)(c1ccc(C(F)(F)C(F)(F)F)cc1)N1CCCC(c2ccc(Cl)c(Cl)c2)=N1` [Compound 272, 3-(3,4-Dichlorophenyl)-1-(4-pentafluoroethylbenzenesulfonyl)-1,4,5,6-tetrahydropyridazine], for which the IC50 in experiment [2] stood at 329 nM.
Still for that read-out and setting: the value for `O=S(=O)(c1ccc(C(F)(F)F)cc1)N1CCCC(c2ccc3ccccc3c2)=N1` [Compound 129] was 4.94 nM.
Same read-out and setting: the value for `CN(C)c1ccc(C2=NN(S(=O)(=O)c3ccc(I)cc3)CCC2)cc1` [Compound 209, 1-(4-Iodobenzenesulfonyl)-3-(4-dimethylaminophenyl)-1,4,5,6-tetrahydropyridazine] was 117 nM.
